Earlier results in paper PMC9600270 (Cancers, 2022).
Values joined by “and” are separate entries in the source; they are usually repeats but may differ in a detail not shown here. Equal entries are not always repeated. Bridges are numbered along the chain shown (N, C = ends). Where no end group is shown, it is not given here.

What was measured:
RMS cells = conditions: TmR-targeted vincristine-loaded liposomes
Excerpt: We previously selected RMS-targeting peptides by in vitro and in vivo phage display and tested them for their potential to increase vincristine-loaded liposomes’ accumulation in RMS mouse xenografts. […] We hypothesized that a targeting peptide with a stronger binding to RMS might be needed to achieve increased accumulation in RMS tumors in vivo. Here, we selected from the literature peptides binding to receptors k ... || We previously tested the peptide TmR for its potential to increase vincristine-loaded liposomes’ accumulation in RMS mouse xenografts. […] Here, we aimed at selecting a peptide with stronger binding to RMS cells than TmR, and F3 peptide bound to the four RMS cell lines tested 3- to 5-fold more than TmR peptide. Importantly, F3 pe ...

RMS mouse xenografts = test system: RMS mouse xenografts; parameters: method as in PMID 28447920; conditions: TmR-targeted vincristine-loaded liposomes

## KRDRGGGCMGTINTRTRRC (disulfide 8-19 (inferred)) [TmR, Furin-targeting RMS peptide, modified version of RMS-P3]
RMS cells
  Increase of RMS binding of liposomes in vitro: 5.4 fold and 5 fold
RMS mouse xenografts
  Tumor accumulation in vivo compared to non-targeted liposomes: did not further increase
